The source of these data is PubChem BioAssay AID292 (DTP/NCI, 2004).

Several values for one entry are separate records, joined by “and”; a condition that tells them apart may be missing. Equal values may be shown once. Inconclusive results and toxic doses are left out.

For the assay, the system named is B6C3F1 mice, ip Sarcoma M5076, median survival T/C. Nature of the assay: NCI In Vivo Anticancer Drug Screen. Data for tumor model Sarcoma M5076 (intraperitoneal) in B6C3F1 mice. The following applies: endpoint: median survival time, higher = longer survival. Summed up:
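Transplantable tumour in mice; compound-treated vs vehicle-treated groups. Read-out: survival. Value = treated/control ratio.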

In the case of `CO[C@H](/C(C)=C/C=C/C(C)=C/c1coc(C)n1)[C@H](C)[C@H]1C[C@@H](O)[C@@]2(C)O[C@H]2/C=C/[C@@H](C)[C@@H]2C[C@@H](CC(=O)O2)C[C@H]2O[C@@H]2C(=O)O1`, the T/C was 110 % of control (dose: 0.06 mg/kg/injection, schedule: Q04DX004 (ip), vehicle: other); 116 % of control (dose: 0.09 mg/kg/injection, schedule: Q04DX004 (ip), vehicle: Klucel (hydroxypropylcellulose) (HPC)); 108 % of control and 113 % of control (dose: 0.09 mg/kg/injection, schedule: Q04DX004 (ip), vehicle: other); 118 % of control (dose: 0.12 mg/kg/injection, schedule: Q04DX004 (ip), vehicle: Klucel (hydroxypropylcellulose) (HPC)); 109 % of control (dose: 0.13 mg/kg/injection, schedule: Q01DX005 (sc), vehicle: other); 115 % of control and 121 % of control (dose: 0.13 mg/kg/injection, schedule: Q04DX004 (ip), vehicle: Klucel (hydroxypropylcellulose) (HPC)). In addition, the T/C by setting is: (dose: 0.13 mg/kg/injection, schedule: Q04DX004 (ip), vehicle: other) 110 % of control; (dose: 0.13 mg/kg/injection, schedule: Q04DX004 (iv), vehicle: other) 112 % of control; (dose: 0.2 mg/kg/injection, schedule: Q01DX001 (sc), vehicle: other) 102 % of control; (dose: 0.2 mg/kg/injection, schedule: Q01DX005 (sc), vehicle: other) 114 % of control; (dose: 0.2 mg/kg/injection, schedule: Q01DX013 (ip), vehicle: other) 162 % of control; (dose: 0.2 mg/kg/injection, schedule: Q04DX004 (ip), vehicle: Klucel (hydroxypropylcellulose) (HPC)) 119 % of control. For the same compound, the T/C runs as follows: (dose: 0.2 mg/kg/injection, schedule: Q04DX004 (ip), vehicle: other) 115 % of control and 121 % of control and 122 % of control; (dose: 0.2 mg/kg/injection, schedule: Q04DX004 (iv), vehicle: other) 110 % of control; (dose: 0.25 mg/kg/injection, schedule: Q04DX004 (ip), vehicle: Klucel (hydroxypropylcellulose) (HPC)) 118 % of control; (dose: 0.3 mg/kg/injection, schedule: Q01DX001 (sc), vehicle: other) 105 % of control; (dose: 0.3 mg/kg/injection, schedule: Q01DX005 (sc), vehicle: other) 115 % of control; (dose: 0.3 mg/kg/injection, schedule: Q01DX013 (ip), vehicle: other) 163 % of control. Further, the T/C was 123 % of control (dose: 0.3 mg/kg/injection, schedule: Q04DX004 (ip), vehicle: Klucel (hydroxypropylcellulose) (HPC)); 123 % of control (dose: 0.3 mg/kg/injection, schedule: Q04DX004 (ip), vehicle: other); 117 % of control (dose: 0.3 mg/kg/injection, schedule: Q04DX004 (iv), vehicle: other); 122 % of control (dose: 0.44 mg/kg/injection, schedule: Q04DX004 (iv), vehicle: other); 109 % of control (dose: 0.45 mg/kg/injection, schedule: Q01DX001 (sc), vehicle: other); 99 % of control (dose: 0.67 mg/kg/injection, schedule: Q01DX001 (sc), vehicle: other). Also, the T/C reads like this: (dose: 0.67 mg/kg/injection, schedule: Q04DX004 (ip), vehicle: Klucel (hydroxypropylcellulose) (HPC)) 150 % of control; (dose: 1.0 mg/kg/injection, schedule: Q01DX001 (sc), vehicle: other) 104 % of control; (dose: 1.0 mg/kg/injection, schedule: Q04DX004 (ip), vehicle: other) 169 % of control; (dose: 1.5 mg/kg/injection, schedule: Q01DX001 (sc), vehicle: other) 110 % of control; (dose: 1.5 mg/kg/injection, schedule: Q04DX004 (ip), vehicle: Klucel (hydroxypropylcellulose) (HPC)) 161 % of control; (dose: 0.67 micrograms per hour, schedule: Q#X X024 (sc), vehicle: other) 122 % of control. Besides, the T/C is 152 % of control (dose: 0.67 micrograms per hour, schedule: Q#X X072 (sc), vehicle: other); 150 % of control (dose: 1.0 micrograms per hour, schedule: Q#X X072 (sc), vehicle: other); 110 % of control (dose: 55.6 micrograms/kg/injection, schedule: Q03HX008 (sc), vehicle: other); 118 % of control (dose: 83.4 micrograms/kg/injection, schedule: Q03HX008 (sc), vehicle: other); 123 % of control (dose: 125.0 micrograms/kg/injection, schedule: Q03HX008 (sc), vehicle: other); 120 % of control (dose: 281.0 micrograms/kg/injection, schedule: Q03HX008 (sc), vehicle: other).
Turning to `CO[C@@]12[C@@H]3N[C@@H]3CN1C1=C(C(=O)C(NCC3CCCO3)=C(C)C1=O)[C@@H]2COC(N)=O` (stereo partly specified), the T/C (dose: 1.5 mg/kg/injection, schedule: Q04DX004 (ip), vehicle: distilled water + Tween-80) was 117 % of control; the T/C (dose: 3.0 mg/kg/injection, schedule: Q04DX004 (ip), vehicle: distilled water + Tween-80) is 118 % of control; the T/C (dose: 12.0 mg/kg/injection, schedule: Q04DX004 (ip), vehicle: distilled water + Tween-80) is 160 % of control; the T/C (dose: 24.0 mg/kg/injection, schedule: Q04DX004 (ip), vehicle: distilled water + Tween-80) is 191 % of control.
For the compound `Cn1nc2c(c(Cl)c1=O)Nc1ccccc1O2`, the T/C is, setting by setting: (dose: 37.5 mg/kg/injection, schedule: Q04DX004 (ip), vehicle: saline with Tween-80) 104 % of control; (dose: 75.0 mg/kg/injection, schedule: Q04DX004 (ip), vehicle: saline with Tween-80) 97 % of control; (dose: 150.0 mg/kg/injection, schedule: Q04DX004 (ip), vehicle: saline with Tween-80) 96 % of control.
For `O=C(O)C1CC(O)CN1` (stereo unspecified), the T/C reads like this: (dose: 50.0 mg/kg/injection, schedule: Q04DX004 (ip), vehicle: suspension in saline) 110 % of control; (dose: 100.0 mg/kg/injection, schedule: Q04DX004 (ip), vehicle: suspension in saline) 103 % of control; (dose: 200.0 mg/kg/injection, schedule: Q04DX004 (ip), vehicle: suspension in saline) 97 % of control; (dose: 400.0 mg/kg/injection, schedule: Q04DX004 (ip), vehicle: suspension in saline) 102 % of control; (dose: 800.0 mg/kg/injection, schedule: Q04DX004 (ip), vehicle: suspension in saline) 100 % of control.
For the compound `Nc1ccn(C2CC3[O][Sn]([c]4ccccc4)([c]4ccccc4)[O]CC3O2)c(=O)n1` (stereo unspecified), the T/C is 100 % of control (dose: 25.0 mg/kg/injection, schedule: Q04DX004 (ip), vehicle: distilled water + Tween-80); 100 % of control (dose: 50.0 mg/kg/injection, schedule: Q04DX004 (ip), vehicle: distilled water + Tween-80); 105 % of control (dose: 100.0 mg/kg/injection, schedule: Q04DX004 (ip), vehicle: distilled water + Tween-80); 100 % of control (dose: 200.0 mg/kg/injection, schedule: Q04DX004 (ip), vehicle: distilled water + Tween-80); 95 % of control (dose: 400.0 mg/kg/injection, schedule: Q04DX004 (ip), vehicle: distilled water + Tween-80).
`O=C1N[C@H]2[C@H](O)[C@H](O)[C@@H](O)[C@H](O)[C@@H]2c2cc3c(c(O)c21)OCO3`: the T/C reads like this: (dose: 1.5 mg/kg/injection, schedule: Q04DX004 (ip), vehicle: saline + alcohol) 115 % of control and 121 % of control; (dose: 3.0 mg/kg/injection, schedule: Q01DX009 (ip), vehicle: saline + alcohol) 162 % of control and 163 % of control; (dose: 6.0 mg/kg/injection, schedule: Q01DX009 (ip), vehicle: saline + alcohol) 177 % of control; (dose: 6.25 mg/kg/injection, schedule: Q01DX009 (ip), vehicle: saline + alcohol) 152 % of control.
On to `O=C1C2C3C=CC(C2C(=O)N1CO)C1C2C(=O)N(CO)C(=O)C2C31` (stereo unspecified), for which the T/C is, setting by setting: (dose: 12.5 mg/kg/injection, schedule: Q04DX004 (ip), vehicle: water) 103 % of control; (dose: 25.0 mg/kg/injection, schedule: Q04DX004 (ip), vehicle: water) 103 % of control; (dose: 50.0 mg/kg/injection, schedule: Q04DX004 (ip), vehicle: water) 98 % of control.
As for `O=C(Nc1ccccc1CCl)Nc1ccccc1CCl`, the T/C by setting is: (dose: 50.0 mg/kg/injection, schedule: Q04DX004 (ip), vehicle: saline with Tween-80) 107 % of control; (dose: 100.0 mg/kg/injection, schedule: Q04DX004 (ip), vehicle: saline with Tween-80) 102 % of control and 110 % of control; (dose: 200.0 mg/kg/injection, schedule: Q04DX004 (ip), vehicle: saline with Tween-80) 109 % of control and 114 % of control; (dose: 800.0 mg/kg/injection, schedule: Q04DX004 (ip), vehicle: saline with Tween-80) 123 % of control.
For the compound `COc1nc2cc3c(cc2n2cccc12)oc1ccccc13`, the T/C is, setting by setting: (dose: 0.38 mg/kg/injection, schedule: Q04DX004 (ip), vehicle: saline with Tween-80) 92 % of control; (dose: 0.75 mg/kg/injection, schedule: Q04DX004 (ip), vehicle: saline with Tween-80) 89 % of control.
